# In patent US5707817A, “Carbohydrate-based vaccine and diagnostic reagent for trichinosis” (Colorado State University Research Foundation, priority 1995, dated 1998):
# Where two headings read alike, the source gives them in different places.
# Experiments:
# [1] = system: Tsp 130 binding to the crude T. spiralis muscle stage larval lysate E11.5; test: Competitive inhibition assay: disaccharide inhibition of Tsp 130 binding to crude muscle stage larval lysate E11.5 (Example 7); settings: for inhibition of Tsp 130 binding to E11.5 lysate: about 500 μg/ml
# Procedure: (§1) Samples in which Tsp-130 monoclonal antibodies and disaccharides, as listed below, were pre-incubated prior to addition to the treated ELISA plate were prepared as follows. One thousand-fold serial dilutions of the following disaccharides, ranging from about 1×10^-6 fg/ml to about 1 mg/ml, were prepared in water: (a) α-tyvelose(1,3)β-d-N-acetylgalactosamine (also referred to herein as α-tyv-GalNAc); (b) β-tyvelose(1,3)β-d-N-acetylgalactosamine (also referred to herein as β-tyv-GalNAc); and (c) α-glucoseα-D-glucose (also referred to herein as α-glc-glc, or trehalose). The disaccharide-containing serial dilutions were then mixed with an about 1:6,400 dilution of Tsp 130 antibody at an about 1:1 (v:v) ratio. The samples were incubated for overnight at about 4° C.
# (§2) About 100 μl of the pre-incubation samples were added in triplicate to wells in the milk-coated ELISA plate. The plate was incubated for about 1 hour at room temperature to allow any unbound Tsp 130 antibody in each sample to bind to TSL-1 antigen coated onto the ELISA plate. The plate was then washed 3 times with water.
# (§3) The amount of Tsp 130 antibody that bound to TSL-1 antigen coated onto the ELISA plate was determined using the following method. About 100 μl of an about 1:8,000 dilution of horse radish peroxidase-conjugated goat anti-mouse IgG antibody (available from Kirkegaard & Perry Laboratories, Inc., Gaithersburg, Md.) was added to each well of the ELISA plate. The plate was then incubated for about 45 minutes at room temperature. Following incubation, the plate was washed 5 times with 0.05% Tween 20 in phosphate-buffered saline (PBS). The peroxidase-conjugated antibodies which bound to Tsp 130 antibody in the wells were then detected by (a) adding 100 μl/well of 3,3',5,5'-tetramethylbenzidine mixed 1:1 (v:v) with 0.02% hydrogen peroxide in a citric acid buffer (i.e., TMB Microwell Peroxidase Substrate System available from Kirkegaard & Perry) and (b) incubating the plate for about 5 minutes at room temperature. The color reaction was stopped by adding about 100 μl/well of 1M o-phosphoric acid. The color reaction was quantitated using a Microplate Reader #7520, available from Cambridge Technology, Inc., Watertown, Mass. at a wavelength of 450 nm.
# Monoclonal antibody Tsp 130 was prepared as described in Example 5. A crude muscle larval lysate of T. spiralis, referred to herein as E11.5, was prepared according to the method as described in Reason et al., ibid.
# An Immunlon II ELISA plate coated with E11.5 lysate was prepared using the method described in Example 5 with the variation that wells in the plate were coated with about 100 μl/well of a solution containing about 250 ng of E11.5 lysate per 100 μl carbonate buffer at pH 9.6. […]
# [2] = system: binding of Tsp 130 antibody to TSL-1 antigen; test: Competition ELISA: disaccharide inhibition of Tsp 130 antibody binding to TSL-1 antigen (Example 5); set-up: species or system T. spiralis; settings: for inhibition of binding of Tsp 130 antibody to TSL-1 antigen: about 500 μg/ml; for relative affinity of Tsp 130 binding: in words, Example 5
# Procedure: (§4) Monoclonal antibody Tsp 130 was prepared as described in Denkers et al. (J. Immunol. 144:3152-3159, 1990). TSL-1 antigens were prepared from muscle stage larvae by affinity purification using a Tsp 130 antibody preparation and methods as described in Denkers et al., J. Immunol., ibid., and Denkers et al., Mol. Biochem. Parasitol., ibid.
# (§5) Wells in an ELISA plate were coated with TSL-1 antigens as follows. A 96-well Immunlon II ELISA plate, available from Dynatech Laboratories, Chantilly, Va., was coated with about 100 μl/well of a solution containing about 15 ng of TSL-1 antigens per 100 μl carbonate buffer at pH 9.6, overnight, at about 4° C. Following the overnight incubation, the TSL-1 antigen-containing solution was discarded from the wells of the ELISA plate. No wash was performed. The wells of the ELISA plate were then filled to the top with about 10% dry milk in phosphate buffered saline and allowed to incubate for about 1 hour at room temperature. Following the 1 hour incubation, the milk solution was discarded from the wells. No wash was performed.
# as §1, §2, §3
# [3] = system: Tsp 130 binding to TSL-1 antigen; test: Competitive inhibition assay: disaccharide inhibition of Tsp 130 binding to TSL-1 antigen (Example 6); set-up: species or system T. spiralis
# Procedure: as §4, §5, §1
# About 100 μl of the pre-incubation samples were added in triplicate to wells in the milk-coated ELISA plate. The plate was incubated for about 1 hour at room temperature to allow any unbound Tsp 130 antibody in each sample to bind to TSL-1 antigen coated onto the ELISA plate. […]
# The amount of Tsp 130 antibody that bound to TSL-1 antigen coated onto the ELISA plate was determined using the following method. […] The peroxidase-conjugated antibodies which bound to Tsp 130 antibody in the wells were then detected by (a) adding 100 μl/well of 3,3',5,5'-tetramethylbenzidine mixed 1:1 (v:v) with 0.02% hydrogen peroxide in a citric acid buffer (i.e., TMB Microwell Peroxidase Substrate System available from Kirkegaard & Perry) and (b) incubating the plate for about 5 minutes at room temperature. […] The color reaction was quantitated using a Microplate Reader #7520, available from Cambridge Technology, Inc., Watertown, Mass. at a wavelength of 450 nm. […]
# [4] = system: binding of Tsp 130 antibody to T. spiralis TSL-1 antigens and E11.5 lysate
Compound,inhibition of Tsp 130 binding to E11.5 lysate [1],inhibition of binding of Tsp 130 antibody to TSL-1 antigen [2],inhibition of Tsp 130 binding to TSL-1 antigen ([3]; about 1 mg/ml),relative affinity of Tsp 130 binding [2],also measured
"CC(=O)N[C@@H]1[C@@H](O[C@H]2O[C@H](C)[C@@H](O)C[C@@H]2O)[C@@H](O)[C@@H](CO)O[C@H]1O [α-tyv-GalNAc, α-tyvelose(1,3)β-d-N-acetylgalactosamine]",about 28%,about 50%,about 74%,–,–
"β-3,6-dideoxy-D-arabinohexose [β-tyvelose]",–,–,–,–,"competitive inhibition of Tsp 130 antibody binding, comparison ([4]; in words, Examples 5 through 7): better than α-tyvelose and even better than α-glc-glc"
C[C@H]1O[C@H](O)[C@@H](O)C[C@@H]1O [α-tyvelose],–,–,–,–,"competitive inhibition of Tsp 130 antibody binding, comparison [4]: able to competitively inhibit Tsp 130 antibody binding to TSL-1 antigen but at a higher concentration than β-tyvelose"
"CC(=O)N[C@@H]1[C@@H](O[C@@H]2O[C@H](C)[C@@H](O)C[C@@H]2O)[C@@H](O)[C@@H](CO)O[C@H]1O [β-tyv-GalNAc, β-tyvelose(1,3)β-d-N-acetylgalactosamine]",about 97%,about 100%,about 97%,higher affinity than to α-tyv-GalNAc,"relative affinity of Tsp 130 binding ([1]; in words, Example 7): higher affinity than to α-tyv-GalNAc or to α-glc-glc; inhibition of Tsp 130 binding to TSL-1 antigen ([3]; about 100 μg/ml): about 92%; relative affinity of Tsp 130 binding ([3]; in words, Example 6): higher affinity than to α-tyv-GalNAc"
"OC[C@H]1O[C@H](O[C@H]2O[C@H](CO)[C@@H](O)[C@H](O)[C@H]2O)[C@H](O)[C@@H](O)[C@@H]1O [α-glc-glc, α-glucoseα-D-glucose, reference compound]",about 7%,about 30%,–,even weaker,–
